# Experimental data: paper PMC3816012 (Structure (London, England : 1993), 2013)
# Target: Qcl (Legionella pneumophila, UniProt O54635)
# Assay: biochemical
# Qcl, sequence (O54635 49-191 limits assumed): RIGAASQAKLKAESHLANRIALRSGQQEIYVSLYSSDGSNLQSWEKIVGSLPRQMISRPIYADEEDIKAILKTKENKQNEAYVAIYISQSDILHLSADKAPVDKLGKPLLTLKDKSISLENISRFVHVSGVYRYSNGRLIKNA
compound,measurement,value
NC(=O)c1ccc[n+]([C@@H]2O[C@H](COP(=O)(O)OP(=O)(O)OC[C@H]3O[C@@H](n4cnc5c(N)ncnc54)[C@H](O)[C@@H]3O)[C@@H](O)[C@H]2O)c1 [NAD+],Kd,400 to 600 µM
